The subject of test [1] is panel of 15 bacterial strains. Put plainly: organism not typed. In kind it is cell-based.
Another test concerns Y79. In words: cytotoxicity profile, Y79. The settings on record: Homo sapiens, Y79, read-out: Cytotoxicity IC50, Y79. The test is classed as cell-based.
The target of another test is EcPDF (Escherichia coli, UniProt P0A6K3). Put plainly: EcPDF inhibition, potency and selectivity profiling. The test is classed as biochemical. The settings on record: for EcPDF (%I): % Inhibition at 100 μM, average of duplicates, 100: ≥100 %I, 0: ≤0 %I.
EcPDF, sequence (P0A6K3 whole entry): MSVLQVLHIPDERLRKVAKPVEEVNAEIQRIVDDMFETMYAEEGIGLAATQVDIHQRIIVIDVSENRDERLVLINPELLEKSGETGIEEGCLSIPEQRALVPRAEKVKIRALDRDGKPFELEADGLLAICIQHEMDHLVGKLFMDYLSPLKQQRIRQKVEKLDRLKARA
In a further test the test system is HL-60/RV+. Put plainly: cytotoxicity profile, HL-60/RV+. The test is classed as cell-based. The settings on record: Homo sapiens, HL-60, read-out: Cytotoxicity IC50, HL-60/RV+.
Another test deals with Meso47. In words: cytotoxicity profile, Meso47. The test is classed as cell-based. The following applies: read-out: Cytotoxicity IC50, Meso47.
For the next test, the target named is T1, HsPDF (Homo sapiens, UniProt Q9HBH1).
T1 sequence (Q9HBH1 40-243): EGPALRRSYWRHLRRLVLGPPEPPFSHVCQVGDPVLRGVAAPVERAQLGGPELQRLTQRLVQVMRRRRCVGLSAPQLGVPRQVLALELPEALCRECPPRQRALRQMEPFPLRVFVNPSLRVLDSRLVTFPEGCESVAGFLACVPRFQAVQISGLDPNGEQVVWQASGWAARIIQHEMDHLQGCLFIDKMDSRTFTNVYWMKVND
Put plainly: HsPDF inhibition, potency and selectivity profiling. In kind it is biochemical. The following applies: for inhibition at 100 µM: read-out: HsPDF (%I); for HsPDF (%I): % Inhibition at 100 μM, average of duplicates, 100: ≥100 %I, 0: ≤0 %I.

Another test concerns HEK293. In words: cytotoxicity profile, HEK293. The test is classed as cell-based. The following applies: Homo sapiens, HEK293, read-out: Cytotoxicity IC50, HEK293.
The target in another test is APN (Homo sapiens, UniProt P15144). Put plainly: APN inhibition, metalloprotease selectivity panel. The settings on record: % Inhibition at 100 μM, average of duplicates; 100: ≥100 %I; 0: ≤0 %I. In kind it is biochemical.
APN, sequence (P15144 whole entry, species assumed): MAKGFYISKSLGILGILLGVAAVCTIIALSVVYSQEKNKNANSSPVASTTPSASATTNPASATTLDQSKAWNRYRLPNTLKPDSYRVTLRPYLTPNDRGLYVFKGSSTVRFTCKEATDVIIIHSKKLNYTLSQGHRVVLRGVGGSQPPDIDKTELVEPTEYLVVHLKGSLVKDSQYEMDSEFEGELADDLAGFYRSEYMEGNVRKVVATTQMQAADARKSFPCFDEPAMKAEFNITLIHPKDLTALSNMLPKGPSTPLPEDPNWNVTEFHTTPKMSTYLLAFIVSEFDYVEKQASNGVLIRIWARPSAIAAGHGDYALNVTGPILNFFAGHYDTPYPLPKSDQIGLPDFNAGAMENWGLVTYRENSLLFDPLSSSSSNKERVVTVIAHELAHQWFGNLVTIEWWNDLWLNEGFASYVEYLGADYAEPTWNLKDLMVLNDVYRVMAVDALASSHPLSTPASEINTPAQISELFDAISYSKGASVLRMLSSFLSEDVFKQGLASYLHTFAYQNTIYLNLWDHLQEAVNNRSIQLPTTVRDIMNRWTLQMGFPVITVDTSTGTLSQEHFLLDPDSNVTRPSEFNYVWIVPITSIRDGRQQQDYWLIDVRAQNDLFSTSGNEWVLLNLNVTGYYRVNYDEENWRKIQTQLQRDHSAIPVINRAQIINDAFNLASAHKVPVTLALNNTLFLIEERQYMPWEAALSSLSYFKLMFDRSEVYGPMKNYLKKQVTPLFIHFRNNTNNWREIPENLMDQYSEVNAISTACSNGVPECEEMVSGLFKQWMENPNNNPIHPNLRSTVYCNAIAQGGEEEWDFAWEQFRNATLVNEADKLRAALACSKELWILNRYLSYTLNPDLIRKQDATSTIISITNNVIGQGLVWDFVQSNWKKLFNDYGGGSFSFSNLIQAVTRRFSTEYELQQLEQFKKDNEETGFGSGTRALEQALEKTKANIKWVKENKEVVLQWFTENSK
A further test has as its target T2, MMP-1 (Homo sapiens, UniProt P03956).
T2 sequence (P03956 100-469): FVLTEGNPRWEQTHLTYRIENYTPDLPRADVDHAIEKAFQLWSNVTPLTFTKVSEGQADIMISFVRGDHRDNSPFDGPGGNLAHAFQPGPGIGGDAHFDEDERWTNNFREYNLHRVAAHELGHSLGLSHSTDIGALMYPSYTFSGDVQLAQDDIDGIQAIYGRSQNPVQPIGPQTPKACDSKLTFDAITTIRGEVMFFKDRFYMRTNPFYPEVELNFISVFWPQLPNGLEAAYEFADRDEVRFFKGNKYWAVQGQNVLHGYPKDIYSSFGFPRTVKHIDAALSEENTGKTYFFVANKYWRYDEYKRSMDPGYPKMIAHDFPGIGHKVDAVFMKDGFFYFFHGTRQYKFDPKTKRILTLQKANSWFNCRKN
Put plainly: MMP-1 inhibition, metalloprotease selectivity panel. In kind it is biochemical. The following applies: for MMP-1 (%I): % Inhibition at 100 μM, average of duplicates, 100: ≥100 %I, 0: ≤0 %I.

For the next test, the system named is CWR22. In words: cytotoxicity profile, CWR22. The following applies: CWR22, read-out: Cytotoxicity IC50, CWR22. In kind it is cell-based.
The subject of test [2] is panel of nine well characterized cancer cell lines. Put plainly: cytotoxicity profile across panel of nine cancer cell lines. In kind it is cell-based. The following applies: read-out: cytotoxicity IC50 range across cancer cell lines.
The next test concerns HL-60 tumors. In words: mouse xenograft model using HL-60 cells. The test is classed as in vivo. The following applies: dose of 15 mg/kg, pilot study.
The subject of a further test is metalloproteases tested. In words: activity toward the metalloproteases tested. In kind it is biochemical. The settings on record: Suppl. Table 2.

Molecules are shown by their SMILES. A value given as a limit tells only on which side of the number the result lay.

For `CCCCC[C@H](CC(=O)NO)C(=O)N[C@H](C(=O)N1CCC[C@H]1CO)C(C)C` [Compd 1, actinonin, reference compound], the “antibacterial activity, number of strains” value in [1] (panel of 15 bacterial strains) was “active in 12 out of the 15 strains tested”.
In general, MIC refers to the smallest concentration in the dilution series that meets the test's criterion for growth inhibition. Low values mean greater potency, high ones weaker potency. `O=C1C(=O)c2c(C(=O)c3ccccc3)coc2C(Cl)=C1Cl` [Compd 5]: the IC50 in the test on Y79 was at least 100 µM; against EcPDF it was above 100 µM; with HL-60/RV+, at least 100 µM; in the test with Meso47, at least 100 µM; with HEK293, at least 100 µM. This compound also came in with an MIC in [1] above 64 µg/mL. Also, the inhibition at 100 µM at HsPDF was at least 100%.
Regarding `O=C1C=Cc2occ(C(=O)c3ccccc3)c2C1=O` [Compd 16], the “APN (%I)” value on APN is “low activity”. At EcPDF, the IC50 was above 100 µM and the “EcPDF (%I)” value is “low activity”. At HsPDF, the “HsPDF (%I)” value was “completely inhibited” and the inhibition at 100 µM is at least 100%. For the same compound, the “MMP-1 (%I)” value on MMP-1 is reported as “low activity”.
Take `COc1ccc(C(=O)c2coc3c2C(=O)C(=O)C=C3)cc1` [Compd 17]: the “APN (%I)” value at APN was “low activity”. On EcPDF, the IC50 is above 100 µM and the “EcPDF (%I)” value is “low activity”. In the test with Meso47, the IC50 is at least 100 µM. The “HsPDF (%I)” value on HsPDF is on record as “completely inhibited”. Moreover, the “MMP-1 (%I)” value at MMP-1 is “low activity”.
For `COc1ccc(C(=O)c2coc3c2C(=O)C(=O)C=C3Cl)cc1` [Compd 19], the IC50 was above 100 µM against EcPDF and at least 100 µM with Meso47. For the same compound, at HsPDF, the inhibition at 100 µM is at least 100%.
`COc1ccc(C(=O)c2coc3c2C(=O)C(=O)C(Cl)=C3)cc1` [Compd 20]: the IC50 against EcPDF was above 100 µM; in the test with HEK293, at least 100 µM.
For the compound `COc1ccc(C(=O)c2coc3c2C(=O)C(=O)C=C3Br)cc1` [Compd 21], the results for the IC50 against EcPDF and in the test on Meso47 were above 100 µM and at least 100 µM, respectively. Also, the inhibition at 100 µM at HsPDF was at least 100%.
Regarding `COc1ccc(C(=O)c2coc3c2C(=O)C(=O)C(Cl)=C3Cl)cc1` [Compd 22], on EcPDF, the IC50 was above 100 µM and the “EcPDF (%I)” value is listed as “no significant activity”. The same compound returned a minimum inhibitory concentration (MIC) in test [1] above 64 µg/mL. Besides, the IC50 in the test with Meso47 is at least 100 µM. For the same compound, on MMP-1, the “MMP-1 (%I)” value is reported as “no significant activity”. Also, at MMP-1 (read-out: MMP-1 (%I)), the inhibition at 100 µM was at most 0%.
On to `COc1ccc(C(=O)c2coc3c2C(=O)C(=O)C(Cl)=C3Cl)cc1OC` [Compd 23], for which the IC50 in the test on HL-60/RV+ and with HEK293 was at least 100 µM in each case. Also, on HsPDF, the inhibition at 100 µM was at least 100%.
On to `COc1cc(C(=O)c2coc3c2C(=O)C(=O)C(Cl)=C3Cl)cc(OC)c1OC` [Compd 24], for which the figures for the IC50 on EcPDF and in the test with Meso47 were above 100 µM and at least 100 µM, respectively. In addition, on HsPDF, the inhibition at 100 µM was at least 100%.
In the case of `COc1ccc(C(=O)c2coc3c2C(=O)C(=O)C(Br)=C3Br)cc1` [Compd 25], the IC50 at EcPDF is above 100 µM; in the test on HL-60/RV+, at least 100 µM; with Meso47, at least 100 µM; in the test with HEK293, at least 100 µM. For the same compound, the inhibition at 100 µM on HsPDF was at least 100%.
As for `COc1ccc(C(=O)c2coc3c2C(=O)C(=O)C(Br)=C3Br)cc1OC` [Compd 26], the IC50 was at least 100 µM in the test with Y79; above 100 µM at EcPDF; at least 100 µM in the test on Meso47; at least 100 µM in the test with CWR22; at least 100 µM in the test with HEK293. In addition, at HsPDF, the inhibition at 100 µM was at least 100%.
`COc1cc(C(=O)c2coc3c2C(=O)C(=O)C(Br)=C3Br)cc(OC)c1OC` [Compd 27]: on EcPDF, the “EcPDF (IC50, μM)” value is on record as “no significant activity” and the IC50 was above 100 µM. Further, the IC50 in test [2] lay within 2.8 to 37 µM. In the test with HL-60 tumors, the “delay of growth of HL-60 tumors” value was “up to 40%”. For the same compound, the inhibition at 100 µM on HsPDF was at least 100%.
Regarding `COc1ccc(C(=O)c2coc3c2C(=O)C(=O)c2ccccc2-3)cc1` [Compd 32], the “activity toward any of the metalloproteases tested” value (“activity toward any” for short) with metalloproteases tested was “no activity”.
Take `COc1ccc(C(=O)c2coc3c2C(=O)C(=O)c2ccccc2-3)cc1OC` [Compd 33]: the “activity toward any” value with metalloproteases tested is given as “no activity”.
As for `COc1cc(C(=O)c2coc3c2C(=O)C(=O)c2ccccc2-3)cc(OC)c1OC` [Compd 34], the “activity toward any” value in the test with metalloproteases tested is recorded as “no activity”.

The values above are taken from paper PMC3139024 (Bioorganic & medicinal chemistry letters, 2011).
